How the values were obtained:
[1] = tested on: MDA-MB-231 cells
[2] = tested on: PBMC; settings: 12.5 µM

Compound	Average (percentage cell inhibition), Dmastoparan MDA-MB231 12.5uM [1] [%]	Average (percentage cell inhibition), Mastoparan PBMC [2] [%]
CC[C@H](C)[C@H](N)C(=O)N[C@@H](CC(N)=O)C(=O)N[C@@H](CC(C)C)C(=O)N[C@@H](CO)C(=O)N[C@@H](C)C(=O)N[C@@H](CC(C)C)C(=O)N[C@@H](C)C(=O)N[C@@H](C)C(=O)N[C@@H](CC(C)C)C(=O)N[C@@H](C)C(=O)N[C@@H](CCCCN)C(=O)N[C@@H](CCCCN)C(=O)N[C@H](C(=O)N[C@@H](CC(C)C)C(N)=O)[C@@H](C)CC [S4]	28.0357	7.7
CC[C@H](C)[C@H](N)C(=O)N[C@@H](CC(N)=O)C(=O)N[C@@H](CC(C)C)C(=O)N[C@@H](CCCCN)C(=O)N[C@@H](C)C(=O)N[C@@H](CC(C)C)C(=O)N[C@@H](C)C(=O)N[C@@H](C)C(=O)N[C@@H](CC(C)C)C(=O)N[C@@H](C)C(=O)N[C@@H](CCCCN)C(=O)N[C@@H](CCCCN)C(=O)N[C@H](C(=O)N[C@@H](Cc1c[nH]c2ccccc12)C(N)=O)[C@@H](C)CC [W14]	56.1495	13.9862
CC[C@H](C)[C@H](N)C(=O)N[C@@H](CC(N)=O)C(=O)N[C@@H](CC(C)C)C(=O)N[C@@H](CCCCN)C(=O)N[C@@H](C)C(=O)N[C@H](C(=O)N[C@@H](C)C(=O)N[C@@H](C)C(=O)N[C@@H](CC(C)C)C(=O)N[C@@H](C)C(=O)N[C@@H](CCCCN)C(=O)N[C@@H](CCCCN)C(=O)N[C@H](C(=O)N[C@@H](CC(C)C)C(N)=O)[C@@H](C)CC)[C@@H](C)CC [I6]	31.3138	13.3589
CC[C@H](C)[C@H](N)C(=O)N[C@@H](CC(N)=O)C(=O)N[C@@H](CC(C)C)C(=O)N[C@@H](CCCCN)C(=O)N[C@@H](C)C(=O)N[C@@H](CC(C)C)C(=O)N[C@@H](C)C(=O)N[C@@H](C)C(=O)N[C@@H](CC(C)C)C(=O)NCC(=O)N[C@@H](CCCCN)C(=O)N[C@@H](CCCCN)C(=O)N[C@H](C(=O)N[C@@H](CC(C)C)C(N)=O)[C@@H](C)CC [G10]	20.1107	11.4267
CC[C@H](C)[C@H](N)C(=O)N[C@@H](CC(N)=O)C(=O)N[C@@H](CC(C)C)C(=O)N[C@@H](CCCCN)C(=O)N[C@@H](C)C(=O)N[C@@H](CC(C)C)C(=O)N[C@@H](C)C(=O)N[C@@H](Cc1ccc(O)cc1)C(=O)N[C@@H](CC(C)C)C(=O)N[C@@H](C)C(=O)N[C@@H](CCCCN)C(=O)N[C@@H](CCCCN)C(=O)N[C@H](C(=O)N[C@@H](CC(C)C)C(N)=O)[C@@H](C)CC [Y8]	50.1841	22.0038
CC[C@H](C)[C@H](N)C(=O)N[C@@H](CC(N)=O)C(=O)N[C@@H](CC(C)C)C(=O)N[C@@H](CCCCN)C(=O)N[C@@H](C)C(=O)N[C@@H](CC(C)C)C(=O)N[C@@H](C)C(=O)N[C@@H](CCCNC(=N)N)C(=O)N[C@@H](CC(C)C)C(=O)N[C@@H](C)C(=O)N[C@@H](CCCCN)C(=O)N[C@@H](CCCCN)C(=O)N[C@H](C(=O)N[C@@H](CC(C)C)C(N)=O)[C@@H](C)CC [R8]	42.355	4.899
CC[C@H](C)[C@H](N)C(=O)N[C@@H](CC(N)=O)C(=O)N[C@@H](CC(C)C)C(=O)N[C@@H](CCCCN)C(=O)N[C@@H](C)C(=O)N[C@@H](CC(C)C)C(=O)N[C@@H](C)C(=O)N[C@@H](C)C(=O)N[C@@H](CCC(=O)O)C(=O)N[C@@H](C)C(=O)N[C@@H](CCCCN)C(=O)N[C@@H](CCCCN)C(=O)N[C@H](C(=O)N[C@@H](CC(C)C)C(N)=O)[C@@H](C)CC [E9]	4.314	0.4268
CC[C@H](C)[C@H](N)C(=O)N[C@@H](CC(N)=O)C(=O)N[C@@H](CC(C)C)C(=O)N[C@@H](CCCCN)C(=O)N[C@@H](C)C(=O)N[C@@H](CC(C)C)C(=O)N[C@@H](C)C(=O)N[C@@H](C)C(=O)N[C@@H](CC(C)C)C(=O)N[C@@H](C)C(=O)N[C@@H](CCCCN)C(=O)N[C@@H](CCCCN)C(=O)N[C@H](C(=O)N[C@@H](CC(C)C)C(N)=O)[C@@H](C)O [T13]	38.2444	3.307
CC[C@H](C)[C@H](N)C(=O)N[C@@H](CC(N)=O)C(=O)N[C@@H](CC(C)C)C(=O)N[C@@H](CCCCN)C(=O)N[C@@H](C)C(=O)N[C@@H](CC(C)C)C(=O)N[C@@H](C)C(=O)N[C@@H](C)C(=O)N[C@@H](CC(C)C)C(=O)N[C@@H](C)C(=O)N[C@@H](CCCCN)C(=O)N[C@@H](CCCCN)C(=O)N[C@H](C(=O)N[C@H](C(N)=O)C(C)C)[C@@H](C)CC [V14]	42.849	3.082
CC[C@H](C)[C@H](N)C(=O)N[C@@H](CC(N)=O)C(=O)N[C@@H](CC(C)C)C(=O)N[C@@H](CCCCN)C(=O)N1CCC[C@H]1C(=O)N[C@@H](CC(C)C)C(=O)N[C@@H](C)C(=O)N[C@@H](C)C(=O)N[C@@H](CC(C)C)C(=O)N[C@@H](C)C(=O)N[C@@H](CCCCN)C(=O)N[C@@H](CCCCN)C(=O)N[C@H](C(=O)N[C@@H](CC(C)C)C(N)=O)[C@@H](C)CC [P5]	25.1894	0.2776
CC[C@H](C)[C@H](N)C(=O)N[C@@H](CC(N)=O)C(=O)N[C@@H](CCCCN)C(=O)N[C@@H](CCCCN)C(=O)N[C@@H](C)C(=O)N[C@@H](CC(C)C)C(=O)N[C@@H](C)C(=O)N[C@@H](C)C(=O)N[C@@H](CC(C)C)C(=O)N[C@@H](C)C(=O)N[C@@H](CCCCN)C(=O)N[C@@H](CCCCN)C(=O)N[C@H](C(=O)N[C@@H](CC(C)C)C(N)=O)[C@@H](C)CC [K3]	21.542	-9.841
CC[C@H](C)[C@H](N)C(=O)N[C@@H](CC(N)=O)C(=O)N[C@@H](CC(C)C)C(=O)N[C@@H](CCCCN)C(=O)N[C@@H](C)C(=O)N[C@@H](CC(C)C)C(=O)N[C@@H](C)C(=O)N[C@@H](C)C(=O)N[C@@H](CC(C)C)C(=O)N[C@@H](Cc1c[nH]cn1)C(=O)N[C@@H](CCCCN)C(=O)N[C@@H](CCCCN)C(=O)N[C@H](C(=O)N[C@@H](CC(C)C)C(N)=O)[C@@H](C)CC [H10]	-5.968	-10.8779
CC[C@H](C)[C@H](N)C(=O)N[C@@H](CC(N)=O)C(=O)N[C@@H](CC(C)C)C(=O)N[C@@H](CCCCN)C(=O)N[C@@H](C)C(=O)N[C@@H](CC(C)C)C(=O)N[C@@H](C)C(=O)N[C@@H](C)C(=O)N[C@@H](CC(C)C)C(=O)N[C@@H](CCCCN)C(=O)N[C@@H](CCCCN)C(=O)N[C@@H](CCCCN)C(=O)N[C@H](C(=O)N[C@@H](CC(C)C)C(N)=O)[C@@H](C)CC [K10]	22.5673	0.05559
CC[C@H](C)[C@H](N)C(=O)N[C@@H](CC(C)C)C(=O)N[C@@H](CC(C)C)C(=O)N[C@@H](CCCCN)C(=O)N[C@@H](C)C(=O)N[C@@H](CC(C)C)C(=O)N[C@@H](C)C(=O)N[C@@H](C)C(=O)N[C@@H](CC(C)C)C(=O)N[C@@H](C)C(=O)N[C@@H](CCCCN)C(=O)N[C@@H](CCCCN)C(=O)N[C@H](C(=O)N[C@@H](CC(C)C)C(N)=O)[C@@H](C)CC [L2]	95.7612	76.9101
